# Test results as given in patent US20120028917A1, “Use Of N-(4-((3-(2-Amino-4-Pyrimidinyl)-2-Pyridinyl)Oxy)Phenyl)-4-(4-Methyl-2-Thienyl)-1-Phthalazinamine In The Treatment Of Antimitotic Agent Resistant Cancer” (Amgen Inc., priority 2009, published 2012).
# Where “and” joins values, the source holds several entries; their conditions need not be identical. Equal values may be shown once.
# Assays:
# [1] = tested on: three matched taxol-resistant and -sensitive tumor cell lines; assay: Matched taxol-resistant and -sensitive tumor cell lines (summary); type: cell-based; settings: Homo sapiens; all three matched taxol-resistant and -sensitive tumor cell lines
# Method: MES-SA Dx5 and MES-SA cells were plated at a density of 10,000 cells/well onto 96-well plate in complete media and cultured for 24 hours. […] Cells were washed and fixed by adding 100 μL of 2× formaldehyde fixation buffer for 10 minutes and room temperature. […] Cells were immunostained with p-histone H3 antibody (5 μg/mL) and incubated at room temperature for 2 hours. Cells were washed in 100 μL of wash buffer. Next, cells were incubated with a goat anti-rabbit alexa-488 conjugated antibody (1.5 μg/mL) in wash buffer supplemented with Hoechest DNA dye (1 μg/mL) and incubated at room temperature in the dark for 30 minutes. Cells were washed twice with 100 μL of wash buffer. The 96-well plates were analyzed on an ArrayScan VTi (Cellomics) using a bioapplication algorithm (TargetActivation.V2). […] NCI-H460 parental and NCI-H460 taxol-resistant cells were seeded at a density of 500,000 cells/well in a 6-well plate in 2 mL of appropriate complete media. The next day cells were treated with AMG 900 or taxol over a 6-point concentration range with a final DMSO concentration of 0.05% in media. After 24 hours, cells were pulsed with BrdU (1:100 dilution) and harvested. […] Data was acquired and analyzed by flow cytomety (LSRII). […] The +4N (same as ≧4N) DNA content or SubG1 cellular EC50 values were calculated using a 4-parameter equation. […] Data was acquired and analyzed by flow cytometry (LSRII). […]
# NCI-H460 xenograft = assay: Xenograft tumor growth inhibition (Example 3); type: in vivo, athymic nude mice; settings: NCI-H460, Lung; oral BID, best of intermittent or continuous dose schedule
# Method: (§1) To investigate whether AMG 900-induced suppression of aurora kinase activity inhibits cell proliferation, the antiproliferative efficacy of AMG 900 was evaluated in-vivo in multiple human cancer xenograft models, including breast, colon, leukemia, lung, pancreatic, and uterine cancer models, grown in athymic nude mice. Mice were administered AMG 900 orally at 3.75, 7.5, or 15 mg/kg BID for 2 consecutive days per week or 3 mg/kg BID everyday for the duration of the study beginning when tumors were established. The reagents, solutions, equipment, formulation of AMG 900, tumor volume measurements and calculations were generally as described in Example 4 below.
# Colo 205 xenograft = assay: Xenograft tumor growth inhibition (Example 3); type: in vivo, athymic nude mice; settings: Colo 205, Colon; oral BID, best of intermittent or continuous dose schedule
# Method: as §1
# HCT 116 xenograft = assay: Xenograft tumor growth inhibition (Example 3); type: in vivo, athymic nude mice; settings: HCT 116, Colon; oral BID, best of intermittent or continuous dose schedule
# Method: as §1
# HL60 xenograft = assay: Xenograft tumor growth inhibition (Example 3); type: in vivo, athymic nude mice; settings: HL60, Leukemia; oral BID, best of intermittent or continuous dose schedule
# Method: as §1
# MES-SA xenograft = assay: Xenograft tumor growth inhibition (Example 3); type: in vivo, athymic nude mice; settings: Uterine, oral BID, best of intermittent or continuous dose schedule
# Method: as §1
# MiaPaCa2 xenograft = assay: Xenograft tumor growth inhibition (Example 3); type: in vivo, athymic nude mice; settings: MiaPaCa2, Pancreas; oral BID, best of intermittent or continuous dose schedule
# Method: as §1
# [2] = tested on: NCI-H460-taxol resistant tumor xenografts; assay: Growth of established NCI-H460-taxol resistant xenografts (Example 4); type: in vivo, athymic nude mice
# Method: To investigate whether AMG 900-induced suppression of aurora kinase activity inhibits cell proliferation, the antitumor efficacy of AMG 900 was evaluated in vivo against NCI-H460-taxol resistant tumor xenografts in athymic nude mice. Mice were dosed PO with AMG 900 (BID) either intermittently or continuously. Mice were dosed IP with paclitaxel (taxol) 5 days/week. An internal Amgen compound was used as a positive control in this study (data not shown). Tumors were measured twice per week. Treatment began on day 12 when the tumors were established. All groups were provided nutritional supplements on a daily basis throughout the study to maintain body weight. AMG 900 (free base) was formulated into suspension to concentrations of 1.5 and 0.3 mg/mL. […] The duration of the dosing phase for AMG 900 was three weeks, and two weeks for the taxol group. The tumors were measured with a digital caliper and the mice were weighed twice per week. Tumor volumes were calculated as follows: […] Tumor inhibition was calculated as follows: […] FIG. 5 illustrates the effects of AMG 900 and Taxol treatment on the growth of established H460-taxol resistant tumors. […] Tumors were measured twice per week. Treatment began 12 days after tumor implantation (arrow) when tumors were approximately 170 mm^3. Mice were dosed PO or IP once or twice daily for 3 weeks. Data represent mean ±SE for each group. *P values (not shown) correspond to statistical difference between groups treated with vehicle and AMG 900 or Taxol analyzed with repeated measure Sheffe's ANOVA over time using […]. The scheduled days listed in the legend represent days/ week. All groups were provided nutritional supplements throughout the study.
# [3] = 3mpk PO BID 7 days/week × 3 wks
# [4] = 15mpk PO BID 2 days ON/5 day OFF/week × 3 wks
smiles,measurement,setting,value
"Cc1csc(-c2nnc(Nc3ccc(Oc4ncccc4-c4ccnc(N)n4)cc3)c3ccccc23)c1 [AMG 900, N-(4-((3-(2-amino-4-pyrimidinyl)-2-pyridinyl)oxy)phenyl)-4-(4-methyl-2-thienyl)-1-phthalazinamine]",EC50,[1],< 2 nM
same,% TGI (tumor growth inhibition),NCI-H460 xenograft,85%
same,% TGI (tumor growth inhibition),Colo 205 xenograft,58%
same,% TGI (tumor growth inhibition),HCT 116 xenograft,83%
same,% TGI (tumor growth inhibition),HL60 xenograft,68%
same,% TGI (tumor growth inhibition),MES-SA xenograft,86%
same,% TGI (tumor growth inhibition),MiaPaCa2 xenograft,62%
same,% Inhibition (tumor growth),[2]; [3],60% and 60.4%
same,"Tumor volume, Mean",[2]; [3],771 mm^3
same,"Tumor volume, Median",[2]; [3],715.6 mm^3
same,% Inhibition (tumor growth),[2]; [4],66% and 65.7%
same,"Tumor volume, Mean",[2]; [4],689 mm^3
same,"Tumor volume, Median",[2]; [4],612.5 mm^3
